Assays:
C. difficile ATCC43255 = test: Macromolecular synthesis assay (radioactive precursor incorporation); format: cell-based, Clostridioides difficile; conditions: 0.5×MIC
Method: FIG. 2. Mechanism of action of compound 1. (A) Macromolecular biosynthesis assays: Compound 1 was incubated with C. difficile ATCC43255 at 0.5×MIC. […] The incubation time was 60 min for DNA, 120 min for peptidoglycan synthesis and RNA, and 180 min for protein synthesis. (B-G) Imaging of C. difficile […] vegetative cells (logarithmic growth) by scanning electron microscopy.
The mechanism of action of 1 was investigated using macromolecular synthesis assays. These assays measure the incorporation of radioactive precursors ([2,8-^3H]-adenine, [5,6-^3H]-uridine, 1-[3,4,5-^3H(N)]-leucine, and N-acetyl-d-[6-^3H]glucosamine) respectively into DNA, RNA, protein, and peptidoglycan. […] This analysis visualizes the cell wall as the outermost layer of the cell envelope of Gram-positive bacteria such as C. difficile.
Macromolecular synthesis assay. The macromolecular synthesis assay was performed by established methods. […] The radiolabeled precursors were purchased from Perkin Elmer (Waltham, Mass., USA).

C. difficile = test: Minimum bactericidal concentration (MBC); format: cell-based, Clostridioides difficile
C. difficile ATCC 43255 = test: Mouse model of recurrent C. difficile infection; format: in vivo, mice; conditions: VAN 50 mg/kg oral once a day for 5 days; days 10-15
Method: Next, compound 1 was evaluated in a mouse model of recurrent CDI.
Animals. Female C57BL/6 mice weighing 18-20 g and 6-8 weeks of age were used for the efficacy study (Jackson, Bar Harbor, Me.). Female CD-1 mice (24-31 g and 7-8 weeks of age) were used for the PK study. They were housed in groups of five mice in sterile polycarbonate shoeboxes with bedding consisting of ¼-inch corncob (The Andersons Ind., Maumee, Ohio) and Alpha-Dri (Shepherd Specialty Papers, Inc., Richland, Mich.). Mice were maintained on a 12-h light/dark cycle at 72° F. and were given Teklad 2918 irradiated extruded rodent diet and water ad libitum. All procedures were performed in accordance with and approved by the University of Notre Dame Institutional Animal Care and Use Committee.
C. difficile infection model. The recurrent C. difficile infection model reported by Chen et al. was used (Gastroenterology 2008, 135, 1984). […] Subsequently, mice were given a 10 mg/kg intraperitoneal injection of clindamycin. The following day, the mice were infected intragastrically with 10^4 CFU of C. difficile ATCC 43255. […] Body weights and survival were recorded for 25 days. The study was repeated a second time.

| SMILES | inhibition of DNA, RNA, and protein synthesis (C. difficile ATCC43255) | inhibition of cell-wall peptidoglycan biosynthesis (C. difficile ATCC43255; N-acetyl-d-[6-^3H]glucosamine incorporation, 120 min) [%] | MBC higher than MIC (C. difficile; C. difficile) [fold] | MBC (C. difficile; Clostridioides difficile, C. difficile) [µg/mL] | bacteriostatic or bactericidal (by definition) (C. difficile; from MBC versus MIC) | recurrence of infection (loss of body weight) (C. difficile ATCC 43255) |
| --- | --- | --- | --- | --- | --- | --- |
| O=C(O)c1ccc2oc(NC(=O)c3cc(Oc4cccc(OC(F)(F)F)c4)ccn3)nc2c1 [Compound 1, Sodium 2-(4-(3-(trifluoromethoxy)phenoxy)picolinamido)benzo[d]oxazole-5-carboxylate] | Minimal levels of inhibition | 55±4 | 64 | 4 | bacteriostatic |  |
| CN[C@H](CC(C)C)C(=O)N[C@H]1C(=O)N[C@@H](CC(N)=O)C(=O)N[C@H]2C(=O)N[C@H]3C(=O)N[C@H](C(=O)N[C@H](C(=O)O)c4cc(O)cc(O)c4-c4cc3ccc4O)[C@H](O)c3ccc(c(Cl)c3)Oc3cc2cc(c3O[C@@H]2O[C@H](CO)[C@@H](O)[C@H](O)[C@H]2O[C@H]2C[C@](C)(N)[C@H](O)[C@H](C)O2)Oc2ccc(cc2Cl)[C@H]1O [VAN, vancomycin, reference compound] |  |  |  |  |  | recurrence of infection is observed |
